Experimental data taken from paper PMC7395068, “The evolution of strategies to minimise the risk of human drug-induced liver injury (DILI) in drug discovery and development” (Archives of Toxicology, 2020).
Structures can show the parent of a compound that is named as a salt. Where two headings read alike, the source gives them in different places.

Columns and labels:
[1] = tested on: hu-MPCC; settings: cited from earlier work
[2] = tested on: RMPCC's; settings: cited from earlier work
[3] = cited from earlier work
[4] = tested on: human hepatocytes; settings: cited from earlier work
[5] = tested on: Upcyte human hepatocytes; settings: In vitro Assay; ref Tolosa 2019; cited from earlier work
[6] = tested on: HepG2 cells; settings: In vitro Assay; ref O'Brien 2006; cited from earlier work
[7] = tested on: rBsep; design: method as in Dawson 2012; settings: In vitro Assay; ref Dawson 2012; cited from earlier work
[8] = ref Chen 2011; cited from earlier work
[9] = read-out: Human plasma Cmax; total plasma Cmax.tot, median of 9 literature references; cited from earlier work
[10] = tested on: HepaRG spheroids; assay: Combined HCI (HCS) and cellular ATP 3D assay in HepaRG spheroids; settings: for AC50 / minimal effective concentration: Homo sapiens; for DILI prediction HepaRG spheroids (HCS-MEC): Microtissue model structural based (HCI), combined HCS and ATP, MEC < 25 × Cmax.tot cut-off
[11] = tested on: RMPCC's; settings: In vitro Assay; ref Khetani 2012; cited from earlier work
[12] = tested on: HepG2; design: method as in Albrecht 2019; settings: In vitro Assay; ref Albrecht 2019; cited from earlier work
[13] = cited from earlier work; remark: listed apart in the source
[14] = Plasma free fraction (fu) and unbound Cmax (Cmax,u); assay type: in vitro ADME, human; settings: unbound plasma Cmax
Method: The prediction of DILI severity was evaluated further using the 3D combined HCI assays using plasma-free fraction. The majority of fu values were obtained from literature, when unavailable in-house prediction was utilised. Unbound plasma Cmax concentrations (Cmax,u) were derived by multiplying total plasma Cmax with the corresponding free fraction (fu) for each compound.

[15] = tested on: PHH; settings: In vitro Assay; ref Albrecht 2019; cited from earlier work
[16] = plasma free fraction; cited from earlier work
[17] = tested on: hLiMTs; assay: Combined HCI (HCS) and cellular ATP 3D assay in hLiMTs
[18] = tested on: primary human hepatocytes, NIH3T3 fibroblasts, BSEP, CYP3A4; settings: cited from earlier work
[19] = tested on: rBsep; settings: In vitro Assay; ref Dawson 2012; cited from earlier work
[20] = tested on: HepG2 cells, primary human hepatocytes; settings: In vitro Assay; ref Garside 2014; cited from earlier work
[21] = tested on: THLE-Null and THLE-3A4 cells; settings: In vitro Assay; ref Gustafsson 2014; cited from earlier work
[22] = tested on: HepG2 cells; settings: cited from earlier work
[23] = tested on: isolated mouse liver mitochondria; settings: In vitro Assay; ref Porceddu 2012; cited from earlier work
[24] = tested on: THLE or HepG2 cells, isolated mitochondria, BSEP; settings: cited from earlier work
[25] = tested on: PHH spheroids; settings: In vitro Assay; ref Vorrink 2018; cited from earlier work
[26] = In vitro Assay, ref Khetani 2012
[27] = In vitro Assay, ref Schadt 2015
[28] = Modeled in vitro assays (cytotoxicity, mitochondrial dysfunction, BSEP), ref Aleo et al. 2019

Compound: CCN(CC)CCOc1ccc(C(=C(Cl)c2ccccc2)c2ccccc2)cc1 [clomiphene citrate]
- HMPCC's [1, 26]: -VE
- RMPCC's [2, 26]: -VE
- In vivo DILI ([3]; ref Khetani 2012): +VE
- In vivo DILI ([3]; ref Xu 2008): +VE
- Structural based (HCI) ([4]; In vitro Assay, ref Xu 2008): -VE

Compound: CCCC(CCC)C(=O)O [valproate]
- Upcytes multi donor assay 14day data [5]: +VE
- Structural based (HCI) [6]: +VE (lowest HCI endpoint IC50 (or in the absence of dose–response < 100 µM) < 30 × total human plasma exposure levels (Cmax.tot))
- Inhibition of rBsep cutoff<1& cmax u>.2 [7]: -VE
- Inhibition of rBsep cutoff<3 [7]: -VE

Compound: NNC(=O)c1ccncc1 [isoniazid, reference compound]
- DILI Score (FDA) (1-8) [8]: 8
- Cmax [9]: 76.6 µM
- HepaRG <25x Avg Cmax ATP ([10]; HepaRG, ATP endpoint, cut-off <25x Avg Cmax): +ve
- HepaRG <100x Avg Cmaxu ATP ([10]; HepaRG, ATP endpoint, cut-off <100x Avg Cmaxu): +ve (<100x Avg Cmaxu)
- HepaRG <25x Avg Cmax HCS ([10]; HepaRG, HCS endpoints, cut-off <25x Avg Cmax): -ve
- HepaRG <100x Avg Cmaxu HCS ([10]; HepaRG, HCS endpoints, cut-off <100x Avg Cmaxu): +ve (<100x Avg Cmaxu)
- HepaRG <25x Avg Cmax All ([10]; HepaRG, all endpoints (ATP and HCS), cut-off <25x Avg Cmax): +ve
- HepaRG Cmax max All ([10]; HepaRG, all endpoints, Cmax max used): +ve
- HepaRG Cmax min All ([10]; HepaRG, all endpoints, Cmax min used): -ve
- HepaRG <10 uM All ([10]; HepaRG, all endpoints, cut-off <10 uM): -ve
- HepaRG <100x Avg Cmaxu All ([10]; HepaRG, all endpoints, cut-off <100x Avg Cmaxu): +ve (<100x Avg Cmaxu)
- AC50 ([10]; HepaRG, read-out: ATP endpoint AC50): 3.52 mM
- minimal effective concentration ([10]; HepaRG, read-out: ATP endpoint MEC): 1330 µM
- AC50 ([10]; HepaRG, read-out: HCS endpoint AC50): 14 mM
- minimal effective concentration ([10]; HepaRG, read-out: HCS endpoint MEC): 5790 µM
- DILI prediction HepaRG spheroids (HCS-MEC) [10]: +VE (MEC < 25 × Cmax.tot cut-off)
- DILI prediction HepaRG spheroids (HCS-MEC) ([10]; listed as Isoniazid): positive
- RMPCC's [11]: -VE
- Upcytes multi donor assay 14day data [5]: +VE
- Cytotoxicity HepG2 48 hrs [12]: +VE
- DILI severity category (Chen 2016) ([13]; human DILI classification, LTKB DILIrank, ref Chen et al. 2016): Most
- DILI severity category ([13]; human DILI severity, ref Chen et al.): Most
- DILI +VE (5-8), DILI -VE (-4) ([13]; ref Chen 2016): +VE
- DILI severity category ([13]; ref Chen 2016): vMost-DILI-Concern
- HMPCC's [1, 26]: +VE
- Human plasma Cmax,u [14]: 74.267 µM
- Cytotoxicity PHH 48 hrs [15]: +VE
- fu [16]: 0.970
- DILI prediction hLiMTs (HCS-MEC) ([17]; Microtissue model structural based (HCI), combined HCS and ATP, MEC < 25 × Cmax.tot cut-off): -VE
- hLiMTs <25x Avg Cmax ATP ([17]; hLiMTs, ATP endpoint, cut-off <25x Avg Cmax): -ve
- hLiMTs <100x Avg Cmaxu ATP ([17]; hLiMTs, ATP endpoint, cut-off <100x Avg Cmaxu): -ve
- hLiMTs <25x Avg Cmax HCS ([17]; hLiMTs, HCS endpoints, cut-off <25x Avg Cmax): -ve
- hLiMTs <100x Avg Cmaxu HCS ([17]; hLiMTs, HCS endpoints, cut-off <100x Avg Cmaxu): -ve
- hLiMTs <25x Avg Cmax All ([17]; hLiMTs, all endpoints (ATP and HCS), cut-off <25x Avg Cmax): -ve
- hLiMTs Cmax max All ([17]; hLiMTs, all endpoints, Cmax max used): -ve
- hLiMTs Cmax min All ([17]; hLiMTs, all endpoints, Cmax min used): -ve
- hLiMTs <10 uM All ([17]; hLiMTs, all endpoints, cut-off <10 uM): -ve
- hLiMTs <100x Avg Cmaxu All ([17]; hLiMTs, all endpoints, cut-off <100x Avg Cmaxu): -ve
- DILI in vitro assay prediction, Schadt (2015) ([18]; BSEP & Metabolism based, ref Schadt et al. 2015): +VE
- Cellular toxicity (3T3 cells) [18, 27]: -VE
- Combined Assay [18, 27]: +VE
- GSH adduct HML [18, 27]: -VE
- Hepatocyte cellular toxicity [18, 27]: -VE
- MitoTox 3T3 [18, 27]: +VE
- hBSEP inhibition [18, 27]: -VE
- Assigned DILI category ([3]; Chen et al. 2016 or literature alignment, ref Chen et al. 2016): 3
- In vivo DILI ([3]; […]): +VE
- In vivo DILI ([3]; ref Albrecht 2019): +VE
- In vivo DILI ([3]; ref Aleo 2019): +VE
- In vivo DILI ([3]; ref Dawson 2012): +VE
- In vivo DILI ([3]; ref Garside 2014): +VE
- In vivo DILI ([3]; ref Gustafsson 2014): +VE
- In vivo DILI ([3]; ref Khetani 2012): +VE
- In vivo DILI ([3]; ref Porceddu 2012): +VE
- In vivo DILI ([3]; ref Schadt 2015): +VE
- In vivo DILI ([3]; ref Tolosa 2012): +VE
- In vivo DILI ([3]; ref Tolosa 2019): +VE
- In vivo DILI ([3]; ref Xu 2008): +VE
- Inhibition of rBsep cutoff<1& cmax u>.2 [19]: -VE
- Inhibition of rBsep cutoff<3 [19]: -VE
- Cluster 1-6 +VE Assay [20]: -VE
- Structural based (HCI) ([4]; In vitro Assay, ref Xu 2008): -VE
- DILI in vitro assay prediction, Xu (2008) ([4]; Structural based (HCI), human hepatocytes, ref Xu et al. 2008): -VE
- THLE-Null [21]: -VE
- Structural based (HCI) ([22]; In vitro Assay, ref Tolosa 2012): +VE
- DILI in vitro assay prediction, Tolosa (2012) ([22]; Structural based (HCI), HepG2, ref Tolosa et al. 2012): -VE
- in vitro data EC2<=1x Cmax [23]: +VE
- in vitro data EC20<=2uM [23]: -VE
- Partition Hybrid HRM Score ([24]; In vitro Assay, ref Aleo 2019): +VE
- Ro2 Hybrid HRM Score ([24]; In vitro Assay, ref Aleo 2019): -VE
- Partition Hybrid HRM Score ≥4, Aleo (2019) [24, 28]: +VE (Partition Hybrid HRM Score ≥4)
- Partition Hybrid HRM Score ≥8, Aleo (2019) [24, 28]: -VE
- Rule of Two hybrid HRM Score ≥3, Aleo (2019) [24, 28]: -VE
- Rule of Two hybrid HRM Score ≥8, Aleo (2019) [24, 28]: -VE

Compound: COc1ccc2c(c1)[C@]13CCCC[C@@H]1[C@H](C2)N(C)CC3 [dextromethorphan]
- DILI +VE (5-8), DILI -VE (-4) ([13]; ref Chen 2016): -VE
- DILI severity category ([13]; ref Chen 2016): vNo-DILI-Concern
- HMPCC's [1, 26]: -VE
- RMPCC's [2, 26]: -VE
- In vivo DILI ([3]; ref Khetani 2012): -VE
- In vivo DILI ([3]; ref Xu 2008): -VE
- Structural based (HCI) ([4]; In vitro Assay, ref Xu 2008): -VE

Compound: NC(=O)NO [hydroxyurea]
- DILI +VE (5-8), DILI -VE (-4) ([13]; ref Chen 2016): +VE
- DILI severity category ([13]; ref Chen 2016): vMost-DILI-Concern
- HMPCC's [1]: +VE
- RMPCC's [2]: +VE
- In vivo DILI ([3]; in vivo): +VE
- Structural based (HCI) [4]: -VE

Compound: CNCCc1ccccn1 [betahistine]
- HMPCC's [1, 26]: -VE
- RMPCC's [2, 26]: -VE
- In vivo DILI ([3]; ref Khetani 2012): +VE
- In vivo DILI ([3]; ref Vorrink 2018): +VE
- In vivo DILI ([3]; ref Xu 2008): +VE
- hLiMTs ATP <20 x Cmax [25]: -VE
- Structural based (HCI) ([4]; In vitro Assay, ref Xu 2008): -VE

Compound: C#CC1(O)CC[C@H]2[C@@H]3CCC4=CC(=O)CC[C@@H]4[C@H]3CC[C@@]21CC (some centres unmarked) [norgestrel]
- HMPCC's [1]: -VE
- RMPCC's [2]: -VE
- In vivo DILI ([3]; in vivo): +VE
- Structural based (HCI) [4]: -VE

Compound: CC(=O)O[C@]1(C(C)=O)CC[C@H]2[C@@H]3C=C(Cl)C4=CC(=O)[C@@H]5C[C@@H]5[C@]4(C)[C@H]3CC[C@@]21C [cyproterone acetate]
- HMPCC's [1, 26]: +VE
- RMPCC's [2, 26]: +VE
- In vivo DILI ([3]; […]): +VE
- In vivo DILI ([3]; ref Khetani 2012): +VE
- In vivo DILI ([3]; ref Xu 2008): +VE
- Structural based (HCI) ([4]; In vitro Assay, ref Xu 2008): -VE
